PubChem BioAssay (NCI)
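Growth conditions: 96-well plates. Treatment: test compound, 48 hours, 5 concentrations. Analysis: linear interpolation between bracketing concentrations; unreached endpoints set to highest concentration. Here, GI50 denotes the concentration required for 50% inhibition of growth. TGI: concentration producing complete growth inhibition.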

Key:
Assay in all cases: inhibition of tumour cell growth, NCI panel, 48 h
MOLT-4 leukemia = tested on: MOLT-4 leukemia
LOX IMVI melanoma = tested on: LOX IMVI melanoma
SF-295 CNS = tested on: SF-295 CNS
SN12C renal = tested on: SN12C renal
HOP-62 NSCLC = tested on: HOP-62 NSCLC
MCF7 breast = tested on: MCF7 breast
BT-549 breast = tested on: BT-549 breast
MDA-MB-468 breast = tested on: MDA-MB-468 breast
HCT-116 colon = tested on: HCT-116 colon
TK-10 renal = tested on: TK-10 renal
CAKI-1 renal = tested on: CAKI-1 renal
SK-MEL-2 melanoma = tested on: SK-MEL-2 melanoma
OVCAR-8 ovarian = tested on: OVCAR-8 ovarian
NCI-H23 lung = tested on: NCI-H23 lung
MALME-3M melanoma = tested on: MALME-3M melanoma
DU-145 prostate = tested on: DU-145 prostate
OVCAR-3 ovarian = tested on: OVCAR-3 ovarian
UACC-62 melanoma = tested on: UACC-62 melanoma
A549 NSCLC = tested on: A549 NSCLC
SF-268 CNS = tested on: SF-268 CNS
EKVX NSCLC = tested on: EKVX NSCLC
RPMI-8226 leukemia = tested on: RPMI-8226 leukemia
ACHN renal = tested on: ACHN renal
HCC-2998 colon = tested on: HCC-2998 colon
IGROV1 ovarian = tested on: IGROV1 ovarian
SR leukemia = tested on: SR leukemia
U251 CNS = tested on: U251 CNS
KM12 colon = tested on: KM12 colon
PC-3 prostate = tested on: PC-3 prostate
SW-620 colon = tested on: SW-620 colon
786-0 renal = tested on: 786-0 renal
A498 renal = tested on: A498 renal
COLO 205 colon = tested on: COLO 205 colon
OVCAR-5 ovarian = tested on: OVCAR-5 ovarian
HS 578T breast = tested on: HS 578T breast
SK-MEL-28 melanoma = tested on: SK-MEL-28 melanoma
HCT-15 colon = tested on: HCT-15 colon
HL-60(TB) leukemia = tested on: HL-60(TB) leukemia
HT29 colon = tested on: HT29 colon
M14 melanoma = tested on: M14 melanoma
OVCAR-4 ovarian = tested on: OVCAR-4 ovarian
SF-539 CNS = tested on: SF-539 CNS
UO-31 renal = tested on: UO-31 renal
SNB-75 CNS = tested on: SNB-75 CNS
MDA-MB-231 breast = tested on: MDA-MB-231 breast
SNB-19 CNS = tested on: SNB-19 CNS
UACC-257 melanoma = tested on: UACC-257 melanoma
HOP-92 NSCLC = tested on: HOP-92 NSCLC
SK-MEL-5 melanoma = tested on: SK-MEL-5 melanoma
SK-OV-3 ovarian = tested on: SK-OV-3 ovarian
CCRF-CEM leukemia = tested on: CCRF-CEM leukemia
NCI-H522 lung = tested on: NCI-H522 lung
NCI-H460 lung = tested on: NCI-H460 lung
RXF 393 renal = tested on: RXF 393 renal
MDA-MB-435 = tested on: MDA-MB-435
K-562 leukemia = tested on: K-562 leukemia
NCI-H226 lung = tested on: NCI-H226 lung
NCI/ADR-RES ovarian = tested on: NCI/ADR-RES ovarian

In the case of `OCCNc1oc(-c2ccccc2)nc1[P+](c1ccccc1)(c1ccccc1)c1ccccc1`, the GI50 (MOLT-4 leukemia) is reported as 4.43 µM, the TGI (MOLT-4 leukemia) is reported as 35.1 µM and the GI50 (LOX IMVI melanoma) is reported as 3.93 µM. For the same compound, the TGI (LOX IMVI melanoma) was 14.6 µM, the GI50 (SF-295 CNS) was 10.5 µM and the TGI (SF-295 CNS) was 24.2 µM. The GI50 (SN12C renal) was 2.82 µM, the TGI (SN12C renal) was 8.53 µM and the GI50 (HOP-62 NSCLC) was 10 µM. It also gave a TGI (HOP-62 NSCLC) of 34.4 µM, a GI50 (MCF7 breast) of 2.69 µM and a TGI (MCF7 breast) of 12.5 µM. The GI50 (BT-549 breast) was 2.51 µM, the TGI (BT-549 breast) was 7.88 µM and the GI50 (MDA-MB-468 breast) was 1.08 µM. It also gave a TGI (MDA-MB-468 breast) of 4.35 µM, a GI50 (HCT-116 colon) of 4.8 µM and a TGI (HCT-116 colon) of 35.1 µM. The GI50 (TK-10 renal) was 6 µM, the TGI (TK-10 renal) was 23.1 µM and the GI50 (CAKI-1 renal) was 11.5 µM. For the same compound, the TGI (CAKI-1 renal) was 43.1 µM, the GI50 (SK-MEL-2 melanoma) was 2.58 µM and the TGI (SK-MEL-2 melanoma) was 7.18 µM. The GI50 (OVCAR-8 ovarian) was 3.79 µM, the TGI (OVCAR-8 ovarian) was 15.2 µM and the GI50 (NCI-H23 lung) was 4.3 µM. It also gave a TGI (NCI-H23 lung) of 23.8 µM, a GI50 (MALME-3M melanoma) of 1.95 µM and a TGI (MALME-3M melanoma) of 6.52 µM. The GI50 (DU-145 prostate) was 6.1 µM, the TGI (DU-145 prostate) was 21.3 µM and the GI50 (OVCAR-3 ovarian) was 2.35 µM. The TGI (OVCAR-3 ovarian) was 11 µM, the GI50 (UACC-62 melanoma) was 1.63 µM and the TGI (UACC-62 melanoma) was 4.28 µM. For the same compound, the GI50 (A549 NSCLC) was 18.5 µM, the TGI (A549 NSCLC) was over 100 µM and the GI50 (SF-268 CNS) was 3.4 µM. It also gave a TGI (SF-268 CNS) of 16.6 µM, a GI50 (EKVX NSCLC) of 5.1 µM and a TGI (EKVX NSCLC) of 28.3 µM. The GI50 (RPMI-8226 leukemia) was 0.956 µM, the TGI (RPMI-8226 leukemia) was 11.7 µM and the GI50 (ACHN renal) was 18.8 µM. It also gave a TGI (ACHN renal) of 85.1 µM, a GI50 (HCC-2998 colon) of 3.3 µM and a TGI (HCC-2998 colon) of 11.7 µM. It also gave a GI50 (IGROV1 ovarian) of 2.57 µM, a TGI (IGROV1 ovarian) of 8.53 µM and a GI50 (SR leukemia) of 5.12 µM. For the same compound, the TGI (SR leukemia) was 22.8 µM, the GI50 (U251 CNS) was 3.28 µM and the TGI (U251 CNS) was 15.4 µM. It also gave a GI50 (KM12 colon) of 3.21 µM, a TGI (KM12 colon) of 11.2 µM and a GI50 (PC-3 prostate) of 2.22 µM. It also gave a TGI (PC-3 prostate) of 11.1 µM, a GI50 (SW-620 colon) of 4.74 µM and a TGI (SW-620 colon) of 35.5 µM. For the same compound, the GI50 (786-0 renal) was 13.2 µM, the TGI (786-0 renal) was 29.8 µM and the GI50 (A498 renal) was 15.4 µM. For the same compound, the TGI (A498 renal) was 48.2 µM, the GI50 (COLO 205 colon) was 2.14 µM and the TGI (COLO 205 colon) was 7.86 µM. The GI50 (OVCAR-5 ovarian) was 5.06 µM, the TGI (OVCAR-5 ovarian) was 34.2 µM and the GI50 (HS 578T breast) was 3.21 µM. For the same compound, the TGI (HS 578T breast) was 13.3 µM, the GI50 (SK-MEL-28 melanoma) was 2.59 µM and the TGI (SK-MEL-28 melanoma) was 11.4 µM. For the same compound, the GI50 (HCT-15 colon) was 29.8 µM, the TGI (HCT-15 colon) was over 100 µM and the GI50 (HL-60(TB) leukemia) was 1.57 µM. For the same compound, the TGI (HL-60(TB) leukemia) was 5.33 µM, the GI50 (HT29 colon) was 3.04 µM and the TGI (HT29 colon) was 17.5 µM. It also gave a GI50 (M14 melanoma) of 4.4 µM, a TGI (M14 melanoma) of 20.2 µM and a GI50 (OVCAR-4 ovarian) of 3.68 µM. The TGI (OVCAR-4 ovarian) was 59.4 µM, the GI50 (SF-539 CNS) was 5.63 µM and the TGI (SF-539 CNS) was 19.5 µM. For the same compound, the GI50 (UO-31 renal) was 20.4 µM, the TGI (UO-31 renal) was 71 µM and the GI50 (SNB-75 CNS) was 1.85 µM. The TGI (SNB-75 CNS) was 7.92 µM, the GI50 (MDA-MB-231 breast) was 1.87 µM and the TGI (MDA-MB-231 breast) was 5.2 µM. It also gave a GI50 (SNB-19 CNS) of 2.82 µM, a TGI (SNB-19 CNS) of 10.9 µM and a GI50 (UACC-257 melanoma) of 2.65 µM. For the same compound, the TGI (UACC-257 melanoma) was 8.47 µM, the GI50 (HOP-92 NSCLC) was 1.35 µM and the TGI (HOP-92 NSCLC) was 6.73 µM. It also gave a GI50 (SK-MEL-5 melanoma) of 1.52 µM, a TGI (SK-MEL-5 melanoma) of 2.92 µM and a GI50 (SK-OV-3 ovarian) of 3.58 µM. For the same compound, the TGI (SK-OV-3 ovarian) was 16.6 µM, the GI50 (CCRF-CEM leukemia) was 3.07 µM and the TGI (CCRF-CEM leukemia) was 19.9 µM. The GI50 (NCI-H522 lung) was 2.15 µM, the TGI (NCI-H522 lung) was 9.32 µM and the GI50 (NCI-H460 lung) was 3.29 µM. For the same compound, the TGI (NCI-H460 lung) was 13.6 µM, the GI50 (RXF 393 renal) was 1.86 µM and the TGI (RXF 393 renal) was 9.35 µM. The GI50 (MDA-MB-435) was 2.99 µM, the TGI (MDA-MB-435) was 11.3 µM and the GI50 (K-562 leukemia) was 2.5 µM. For the same compound, the TGI (K-562 leukemia) was 20.7 µM, the GI50 (NCI-H226 lung) was 4.05 µM and the TGI (NCI-H226 lung) was 24.5 µM. For the same compound, the GI50 (NCI/ADR-RES ovarian) was over 100 µM and the TGI (NCI/ADR-RES ovarian) was over 100 µM.
